Test results published in ChEMBL document CHEMBL5375962 (J Med Chem, 2023).
≈ marks a conversion by molar mass, not a printed value. Calls of active or inactive are those of the source. The rule behind the calls is not given here.

How the values were obtained:
Hepatocyte = assay: Cytotoxicity against rat Primary hepatocyte; assay type: toxicity, cell-based; settings: hepatocytes
[1] = Inhibition of mouse KHK-C
[2] = AUC in dog at 3 mg/kg, po; assay type: ADME, organism-based, Canis lupus familiaris; parameters: dose 3 mg/kg, route po; settings: in vivo
[3] = Metabolic stability in rat liver microsomes assessed as compound degradation measured after 30 mins; assay type: ADME, Microsome; settings: read-out: Drug degradation
[4] = Half life in dog at 1 mg/kg, iv; assay type: ADME, organism-based, Canis lupus familiaris; settings: in vivo
[5] = Clearance in human hepatocytes measured per 10^6 cells; assay type: ADME, cell-based, Hepatocyte; settings: read-out: CLH
[6] = Clearance in rat hepatocytes measured per 10^6 cells; assay type: ADME, cell-based, Hepatocyte; settings: read-out: CLH
[7] = Cmax in rat at 3 mg/kg, po measured after 12 hrs; assay type: ADME, organism-based; parameters: dose 3 mg/kg, time 12 hrs, route po; settings: in vivo
[8] = Oral bioavailability in dog at 3 mg/kg; assay type: ADME, organism-based, Canis lupus familiaris; settings: in vivo
[9] = Metabolic stability in dog liver microsomes assessed as compound degradation measured after 30 mins; assay type: ADME, Canis lupus familiaris, Microsome; settings: read-out: Drug degradation
[10] = Metabolic stability in human liver microsomes assessed as compound degradation measured after 30 mins; assay type: ADME, Microsome; settings: read-out: Drug degradation
[11] = Permeability in MDCK cells assessed as drug transport measured over 1 hr in presence of P-gp; assay type: ADME, cell-based, Canis lupus familiaris; settings: dog
[12] = Oral bioavailability in rat at 3 mg/kg measured after 12 hrs; assay type: ADME, organism-based; settings: in vivo
[13] = Cmax in rat at 1 mg/kg, iv measured after 12 hrs; assay type: ADME, organism-based; parameters: dose 1 mg/kg, time 12 hrs, route iv; settings: in vivo
[14] = Inhibition of mouse KHK-A
[15] = Thermodynamic solubility of the compound […] at pH 7.4; assay type: physicochemical; settings: read-out: Therm_solubility
[16] = Clearance in dog at 1 mg/kg, iv; assay type: ADME, organism-based, Canis lupus familiaris; settings: in vivo
[17] = Clearance in dog hepatocytes measured per 10^6 cells; assay type: ADME, cell-based, Canis lupus familiaris, Hepatocyte; settings: read-out: CLH
[18] = AUC in rat at 1 mg/kg, iv measured after 12 hrs; assay type: ADME, organism-based; parameters: time 12 hrs, dose 1 mg/kg, route iv; settings: in vivo
[19] = Half life in dog at 3 mg/kg, po; assay type: ADME, organism-based, Canis lupus familiaris; settings: in vivo
[20] = Half life in rat at 1 mg/kg, iv measured after 12 hrs; assay type: ADME, organism-based; settings: in vivo
[21] = Tmax in dog at 3 mg/kg, po; assay type: ADME, organism-based, Canis lupus familiaris; settings: in vivo
[22] = Cmax in dog at 3 mg/kg, po; assay type: ADME, organism-based, Canis lupus familiaris; parameters: dose 3 mg/kg, route po; settings: in vivo
[23] = AUC in rat at 3 mg/kg, po measured after 12 hrs; assay type: ADME, organism-based; parameters: dose 3 mg/kg, time 12 hrs, route po; settings: in vivo
[24] = Metabolic stability in mouse liver microsomes assessed as compound degradation measured after 30 mins; assay type: ADME, Microsome; settings: read-out: Drug degradation
[25] = Tmax in rat at 3 mg/kg, po measured after 12 hrs; assay type: ADME, organism-based; settings: in vivo
[26] = Volume of distribution in dog at 1 mg/kg, iv; assay type: ADME, organism-based, Canis lupus familiaris; settings: in vivo
[27] = Cmax in dog at 1 mg/kg, iv; assay type: ADME, organism-based, Canis lupus familiaris; parameters: dose 1 mg/kg, route iv; settings: in vivo
[28] = Clearance in rat at 1 mg/kg, iv measured after 12 hrs; assay type: ADME, organism-based; settings: in vivo
[29] = Volume of distribution in rat at 1 mg/kg, iv measured after 12 hrs; assay type: ADME, organism-based; settings: in vivo
[30] = Half life in rat at 3 mg/kg, po measured after 12 hrs; assay type: ADME, organism-based; settings: in vivo
[31] = AUC in dog at 1 mg/kg, iv; assay type: ADME, organism-based, Canis lupus familiaris; parameters: dose 1 mg/kg, route iv; settings: in vivo
Mus musculus = assay: Reduction in fructose level in 5 hrs fasted C57B6 mouse assessed as maximum effect at 100 mg/kg administered via oral gavage measured upto 180 mins by oral fructose challenge assay; assay type: functional, organism-based
Ketohexokinase = target: T1, Ketohexokinase (Homo sapiens, UniProt P50053); assay: Inhibition of KHK in human HepG2 cells incubated for 3 hrs by Rapidfire MS analysis; assay type: cell-based
T1 sequence (P50053 whole entry): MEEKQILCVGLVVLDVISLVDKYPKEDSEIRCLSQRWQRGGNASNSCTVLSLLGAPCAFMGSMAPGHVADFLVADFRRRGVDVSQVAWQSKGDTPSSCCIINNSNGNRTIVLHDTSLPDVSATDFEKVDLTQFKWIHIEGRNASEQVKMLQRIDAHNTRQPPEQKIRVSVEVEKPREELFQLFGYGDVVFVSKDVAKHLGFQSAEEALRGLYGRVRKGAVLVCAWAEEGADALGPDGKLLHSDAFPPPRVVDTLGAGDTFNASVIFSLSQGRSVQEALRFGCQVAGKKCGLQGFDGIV

OC[C@H]1CCN1c1nc(-c2cnn(C3CCNCC3)c2)cc(C(F)(F)F)n1
LC20 (Hepatocyte): > 50000 nM | IC50 [1]: 177 nM | AUC [2]: 10.3 µM·h | metabolised at 0.5 h [3]: 0% | half-life [4]: 5 h | hepatocyte CLint [5]: 1.8 µL/min/1e6 cells | hepatocyte CLint [6]: < 1.8 µL/min/1e6 cells | Cmax [7]: 424 nM | bioavailability [8]: 100% | metabolised at 0.5 h [9]: 7% | metabolised at 0.5 h [10]: 3% | Drug transport [11]: 3.2% | bioavailability [12]: 95% | Cmax [13]: 310 nM | IC50 [14]: 56 nM | solubility thermodynamic [15]: 750 µg/mL (≈ 1960 µM) | clearance [16]: 23 mL/min/kg | hepatocyte CLint [17]: 3.4 µL/min/1e6 cells | AUC at 12 h [18]: 0.69 µM·h | half-life [19]: 10 h | half-life [20]: 4.3 h | Tmax [21]: 2.3 h | Cmax [22]: 609 nM | AUC at 12 h [23]: 1.95 µM·h | metabolised at 0.5 h [24]: 13% | Tmax [25]: 1.7 h | Vd [26]: 8.4 L/kg | Cmax [27]: 2940 nM | clearance [28]: 56 mL/min/kg | Vd [29]: 17 L/kg | half-life [30]: 5 h | AUC [31]: 1.97 µM·h

C[C@H]1CCN1c1nc(N2C[C@@H]3[C@@H](CC(=O)O)[C@@H]3C2)cc(C(F)(F)F)n1 [PF-06835919]
IC50 [1]: 20 nM | IC50 [14]: 30 nM | Activity (Mus musculus): Active

C[C@H]1CCN1c1nc(-c2cnn(CC(=O)NCCO)c2)cc(C(F)(F)F)c1C#N
LC20 (Hepatocyte): > 50000 nM | IC50 [1]: 28 nM | metabolised at 0.5 h [3]: 21% | half-life [4]: 5.2 h | hepatocyte CLint [5]: 2.8 µL/min/1e6 cells | hepatocyte CLint [6]: 12 µL/min/1e6 cells | Cmax [7]: 827 nM | metabolised at 0.5 h [9]: 7% | metabolised at 0.5 h [10]: 4% | Drug transport [11]: 15% | bioavailability [12]: 62% | Cmax [13]: 1910 nM | IC50 [14]: 12 nM | solubility thermodynamic [15]: 39 µg/mL (≈ 95.5 µM) | clearance [16]: 5 mL/min/kg | hepatocyte CLint [17]: 3.2 µL/min/1e6 cells | AUC at 12 h [18]: 2.62 µM·h | half-life [20]: 2.2 h | AUC at 12 h [23]: 5.09 µM·h | metabolised at 0.5 h [24]: 19% | IC50 (Ketohexokinase): 84 nM | Tmax [25]: 1.2 h | Vd [26]: 1.4 L/kg | Cmax [27]: 2340 nM | clearance [28]: 16 mL/min/kg | Vd [29]: 2.9 L/kg | half-life [30]: 3 h | AUC [31]: 9.04 µM·h
